Experiments:
peripheral white cells [1] = assay: Cytokine/chemokine transcription in peripheral white cells of AML patients treated in vivo; parameters: species or system human; conditions: for induction of transcription of IL-6, IL-8, IL-1b, MIP1b: in vivo
Method: (§1) FIG. 15 Induction of transcription of IL-6, IL-8, IL-1b, MIP1b cytokine/chemokines by MGCD0103 in peripheral white cells ex vivo from a MDS patient and in vivo in an AML patient with response (Patient J).
(§2) Whole blood from either consenting healthy volunteers or consenting patients was centrifuged at 2500 rpm for 10 minutes at ambient temperature in a Sorvall RT-7 centrifuge (Mandel Scientific Co., Guelph, Ontario). Plasma was removed and buffy coat was collected. Five volumes of Erythrocyte Lysis Buffer (EL) (Qiagen Canada Inc., Mississauga, Ontario) were added into buffy coat. Buffy coat was incubated on ice for 20 minutes before it was centrifuged at 400 g for 10 minutes at 4° C. Supernatant was removed and buffy coat was washed twice with EL buffer and re-centrifuged. Buffy coat was resuspended in RPMI media and cells were counted with trypan blue exclusion. To isolate PBMCs, buffy coat cells were centrifuged over Lymphoprep (Axis-Shield, 1114544), and any remaining erythrocytes in the sample were lysed by treatment with EL lysis buffer (Qiagen, 79217). The cell pellets are washed and then re-suspended in RPMI containing 10% FBS.
Human patients with either solid tumors or leukemia/MDS diseases were enrolled in phase I studies with consensus forms. MGCD0103 were dosed into patients orally every other day (day 1, day 3, day 5 […]). Blood samples were withdrawled by using the Vacutainer sodium-heparin blood collection tubes (Becton Dickinson Laboratories, Franklin Lakes, N.J.) and shipped to the test site within 24 hours on ice-pack. Baseline samples were drawn immediately prior to the first drug dose, while the 24 hour samples were drawn at 24 hours post the first drug dose. The 48 hours samples were drawn at 48 hours post the first dose. For the 1 week samples, blood was drawn 72 hours after day 5 dose (3 accumulated doses during week 1).

peripheral white cells [2] = assay: Cytokine/chemokine transcription in peripheral white cells treated ex vivo; type: cell-based, human
Method: as §1, §2

[3] = test system: human colon cancer HCT15 cells; assay: RT-PCR of MT3 transcription in HCT15 cells; type: cell-based
Method: FIG. 1. […] HCT15 cells were treated with HDAC inhibitors or indicated compounds for 16 hours before total RNAs are isolated. RNA levels of MT3 were measured by real-time RT-PCR and are subsequently normalized against β-actin.
Colon cancer HCT15 cells were exposed to 1 μM MGCD0103 for various amounts of time, and MT3 RNA levels were monitored by conventional semi-quantitative RT-PCR. Maximal induction is achieved between 8 h and 24 h of exposure and maintained through 72 h.
RNA was extracted from 8×10^6 cells using the Qiagen RNeasy Mini kit (cat#74106, Qiagen, Missisauga Ont.) following the manufacturer's instructions. RT reaction was performed using the Expand Reverse Transcriptase kit from Roche (Cat#1 785 834 Roche Applied Biosciences, Laval, Que) with 1 μg total RNA together with 1 μl oligo(dT) primer (cat#y01212, Invitrogen-Canada, Burlington, Ont). cDNA was synthesized using an Eppendorf Mastercycler gradient PCR apparatus (Brinkmann Instruments Canada LTD., Mississauga, Ontario), using a two cycle protocol. For the 1st cycle reaction mixture (0.5 μl H2O, 4 μl of 5× Buffer, 2 μl DTT, 2 ul of 10 mM dNTPs, 0.5 μl RNAsin (cat#N211B, Promega, Fisher Scientific, Whitby, Ont.) and […] of the Expand Reverse Transcriptase (Cat#1785834, Roche, Laval, Quebec)) was incubated at 65° C. for 10 minutes and then set on ice. A second cycle was performed at 42° C. for 1 hour. The resulting cDNA products were kept at 4° C. until used.
One ul of the resulting cDNA was used for every amplification reaction with 18.9 ul H2O, 1.25 ul of 10 mM dNTPs, 0.5 ul of each primer pair, 2.5 ul of 10× Buffer. The PCR reaction was carried out in an Eppendorf Mastercycler gradient. The sequences of the primers used for the amplification of selected biomarkers, as well as the details of the PCR reaction cycles are featured below. All buffers came from Expand Long Template PCR system (Roche, Laval, Quebec, Cat#11681842001). All primers were synthesized by Invitrogen (Invitrogen-Canada, Burlington, Ont.)
Analysis of transcripts was performed using STORM 860 (Amersham Biosciences, Baie d'Urfe, Qubec). Transcription of genes was normalized to transcription of actin, which was performed in the same RT-PCR reaction. The relative expression level of gense was normalized to baseline signals.
Quantitative PCR with SYBR Green I detection with Mastercycler® ep realplex (Eppendorf) was performed using LightCycler® 480 SYBR Green I Master (Roche Diagnostics). SYBR Green I assays were performed with 600 nM primers. All other reaction conditions were as described by the manufacturer. Amplification conditions were 5 minutes of initial denaturation at 95° C., followed by 40 cycles of each 15 seconds at 95° C., 15 seconds at 63.4° C., 20 seconds at 68° C., a melting curve from 60° C. to 95° C. was recorded. Quantification was performed using Pfaffl method, a relative quantification method in real-time PCR (Nucleic Acids Research 2001 29:2002-2007). Primers were synthesized by Invitrogen (Invitrogen-Canada, Burlington, Ont.).

SMILES: Nc1ccccc1NC(=O)c1ccc(CNc2nccc(-c3cccnc3)n2)cc1 [MGCD0103]
- expression level of other cytokine/chemokines (peripheral white cells [1]; ex vivo/in vivo in patients (data not shown)): either decreased or remained unmodified
- induction of transcription of IL-6, IL-8, IL-1b, MIP1b (peripheral white cells [1]; AML patient with response (Patient A) (FIG. 15)): induction
- induction of transcription of IL-6, IL-8, IL-1b, MIP1b (peripheral white cells [1]; two AML patients without clinical response (Patient B, C) (FIG. 15)): No such induction
- induction of transcription of IL-6, IL-8, IL-1b, MIP1b (peripheral white cells [2]; peripheral white cells ex vivo from a MDS patient (Patient J) (FIG. 15)): induction
- induction of transcription of IL-6, IL-8, IL-1b, MIP1b (peripheral white cells [2]; peripheral white cells from healthy volunteers treated ex vivo (FIG. 15)): No such induction
- Time-dependent induction of MT3 transcription ([3]; 1 uM (FIG. 3)): Time-dependent induction
- time through which maximal MT3 induction is maintained ([3]; 1 uM (FIG. 3)): ≥ 72 h
- Dose-dependent induction of MT3 transcription ([3]; 16 h, semi-quantitative RT-PCR (FIG. 2)): Dose-dependent induction
- Induction of transcription of MT3 ([3]; 16 hours, real-time RT-PCR normalized against beta-actin (FIG. 1)): induced

Source: patent US20070292351A1, “Assay for efficacy of histone deacetylase inhibitors” (Methylgene, Inc., priority 2006, published 2007)
